Measured values from US10045532B2, “Synergistic herbicidal mixtures for glyphosate-resistant volunteer corn control” (Valent U.S.A., Corporation, priority 2015, dated 2018).
Structures can show the parent of a compound that is named as a salt.

Key:
Assay type in all cases: in vivo
[1] = test system: glyphosate-resistant corn variety P1690; assay: Foliar spray of corn at V7 stage in outdoor replicated field plots, corn variety P1690 (Example 2, Table 2); conditions: for percent control of glyphosate-resistant corn, 9 DAT / percent control of glyphosate-resistant corn, 16 DAT: variety P1690
From the text: (§1) Two varieties of corn were foliarly sprayed with mixtures of ethyl [3-[2-chloro-4-fluoro-5-(1-methyl-6-trifluoromethyl-2,4-dioxo-1,2,3,4-tetrahydropyrimidin-3-yl)phenoxy]-2-pyridyloxy]acetate and the potassium salt of glyphosate in outdoor replicated field plots. In addition, mixtures of ethyl [3-[2-chloro-4-fluoro-5-(1-methyl-6-trifluoromethyl-2,4-dioxo-1,2,3,4-tetrahydropyrimidin-3-yl)phenoxy]-2-pyridyloxy]acetate and glufosinate, and N,N′-dimethyl-4,4′-bipyridinium dichloride alone were foliarly sprayed. One corn variety was glyphosate-resistant and the other variety was both glyphosate and glufosinate resistant. The corn plants were at the V7 (plants with seven leaves with visible collars, about 30 to 40 inches tall) stage of development at the time of treatment. Roundup® PowerMax (available from Monsanto Company) was used as the source of the potassium salt of glyphosate. The adjuvant non-ionic surfactant was applied with ethyl [3-[2-chloro-4-fluoro-5-(1-methyl-6-trifluoromethyl-2,4-dioxo-1,2,3,4-tetrahydropyrimidin-3-yl)phenoxy]-2-pyridyloxy]acetate. The effects of the treatments were observed and recorded 9 and 16 days after the treatments (“9 DAT” and “16 DAT”, respectively).

[2] = test system: glyphosate-resistant and glufosinate-resistant corn variety 765-30; assay: Foliar spray of corn at V7 stage in outdoor replicated field plots, corn variety 765-30 (Example 2, Table 3); conditions: for percent control of glyphosate-resistant and glufosinate-resistant corn, 9 DAT / percent control of glyphosate-resistant and glufosinate-resistant corn, 16 DAT: variety 765-30
From the text: as §1

[3] = test system: volunteer glyphosate-resistant corn; assay: Foliar spray of glyphosate-resistant corn at V4 stage in outdoor replicated field plots (Example 1)
From the text: Glyphosate-resistant corn was foliarly sprayed with mixtures of ethyl [3-[2-chloro-4-fluoro-5-(1-methyl-6-trifluoromethyl-2,4-dioxo-1,2,3,4-tetrahydropyrimidin-3-yl)phenoxy]-2-pyridyloxy]acetate and the potassium salt of glyphosate in outdoor replicated field plots. The corn was at the V4 (plants with four leaves with visible collars, about 6 to 8 inches tall) stage of development at the time of treatment. Roundup® PowerMax (available from Monsanto Company) was used as the source of the potassium salt of glyphosate. The adjuvant crop oil concentrate was applied with ethyl [3-[2-chloro-4-fluoro-5-(1-methyl-6-trifluoromethyl-2,4-dioxo-1,2,3,4-tetrahydropyrimidin-3-yl)phenoxy]-2-pyridyloxy]acetate. The effects of the treatments were observed and recorded 9 and 23 days after the treatments (“9 DAT” and “23 DAT”, respectively).

[4] = Treatment 15, 500 g active/hectare
[5] = Treatment 8, 1260 g active/hectare
[6] = Treatment 2, 1054 g active/hectare
[7] = Treatment 18, 840 g active/hectare
[8] = Treatment 2, 1.25 g active/hectare
[9] = Treatment 3, 2.5 g active/hectare
[10] = Treatment 4, 5 g active/hectare
[11] = Treatment 5, 10 g active/hectare
[12] = Treatment 6, 20 g active/hectare
[13] = Treatment 7, 30 g active/hectare
[14] = Treatment 3, 5.6 g active/hectare
[15] = Treatment 4, 10.1 g active/hectare
[16] = Treatment 5, 20.2 g active/hectare
[17] = Treatment 6, 30.3 g active/hectare
[18] = Treatment 7, 40.3 g active/hectare

Structure (SMILES): CP(=O)(O)CCC(N)C(=O)O (stereo not drawn) [Glufosinate, reference compound]
- percent control of glyphosate-resistant corn, 9 DAT [1, 4]: 92.7%
- percent control of glyphosate-resistant corn, 16 DAT [1, 4]: 100%
- percent control of glyphosate-resistant and glufosinate-resistant corn, 9 DAT [2, 4]: 3.8%
- percent control of glyphosate-resistant and glufosinate-resistant corn, 16 DAT [2, 4]: 0%

Structure (SMILES): O=C(O)CNCP(=O)(O)O [Glyphosate, potassium salt, reference compound]
- percent control of glyphosate-resistant corn, 9 DAT [1, 5]: 0%
- percent control of glyphosate-resistant corn, 16 DAT [1, 5]: 0%
- activity against glyphosate-resistant corn when applied alone ([1]; applied alone, Table 2, variety P1690): no activity
- percent control of volunteer glyphosate-resistant corn, 9 DAT [3, 6]: 0%
- percent control of volunteer glyphosate-resistant corn, 23 DAT [3, 6]: 0%
- activity against glyphosate-resistant corn when applied alone ([3]; applied alone, Table 1): no activity
- percent control of glyphosate-resistant and glufosinate-resistant corn, 9 DAT [2, 5]: 0%
- percent control of glyphosate-resistant and glufosinate-resistant corn, 16 DAT [2, 5]: 0%
- activity against glyphosate-resistant corn when applied alone ([2]; applied alone, Table 3, variety 765-30): no activity

Structure (SMILES): C[n+]1ccc(-c2cc[n+](C)cc2)cc1.[Cl-].[Cl-] [N,N′-dimethyl-4,4′-bipyridinium dichloride, reference compound]
- percent control of glyphosate-resistant corn, 9 DAT [1, 7]: 84%
- percent control of glyphosate-resistant corn, 16 DAT [1, 7]: 77.5%
- percent control of glyphosate-resistant and glufosinate-resistant corn, 9 DAT [2, 7]: 81.3%
- percent control of glyphosate-resistant and glufosinate-resistant corn, 16 DAT [2, 7]: 92.5%

Structure (SMILES): CCOC(=O)COc1ncccc1Oc1cc(-n2c(=O)cc(C(F)(F)F)n(C)c2=O)c(F)cc1Cl [ethyl [3-[2-chloro-4-fluoro-5-(1-methyl-6-trifluoromethyl-2,4-dioxo-1,2,3,4-tetrahydropyrimidin-3-yl)phenoxy]-2-pyridyloxy]acetate]
- percent control of glyphosate-resistant corn, 9 DAT [1, 8]: 16.15%
- percent control of glyphosate-resistant corn, 16 DAT [1, 8]: 25%
- percent control of glyphosate-resistant corn, 9 DAT [1, 9]: 49.78%
- percent control of glyphosate-resistant corn, 16 DAT [1, 9]: 55%
- percent control of glyphosate-resistant corn, 9 DAT [1, 10]: 44.48%
- percent control of glyphosate-resistant corn, 16 DAT [1, 10]: 40%
- percent control of glyphosate-resistant corn, 9 DAT [1, 11]: 57.6%
- percent control of glyphosate-resistant corn, 16 DAT [1, 11]: 42.5%
- percent control of glyphosate-resistant corn, 9 DAT [1, 12]: 81.8%
- percent control of glyphosate-resistant corn, 16 DAT [1, 12]: 100%
- percent control of glyphosate-resistant corn, 9 DAT [1, 13]: 95%
- percent control of glyphosate-resistant corn, 16 DAT [1, 13]: 100%
- percent control of volunteer glyphosate-resistant corn, 9 DAT [3, 14]: 68.78%
- percent control of volunteer glyphosate-resistant corn, 23 DAT [3, 14]: 6.7%
- percent control of volunteer glyphosate-resistant corn, 9 DAT [3, 15]: 95.75%
- percent control of volunteer glyphosate-resistant corn, 23 DAT [3, 15]: 87.74%
- percent control of volunteer glyphosate-resistant corn, 9 DAT [3, 16]: 99.89%
- percent control of volunteer glyphosate-resistant corn, 23 DAT [3, 16]: 99.89%
- percent control of volunteer glyphosate-resistant corn, 9 DAT [3, 17]: 100%
- percent control of volunteer glyphosate-resistant corn, 23 DAT [3, 17]: 100%
- percent control of volunteer glyphosate-resistant corn, 9 DAT [3, 18]: 100%
- percent control of volunteer glyphosate-resistant corn, 23 DAT [3, 18]: 100%
- percent control of glyphosate-resistant and glufosinate-resistant corn, 9 DAT [2, 8]: 16.15%
- percent control of glyphosate-resistant and glufosinate-resistant corn, 16 DAT [2, 8]: 25%
- percent control of glyphosate-resistant and glufosinate-resistant corn, 9 DAT [2, 9]: 49.78%
- percent control of glyphosate-resistant and glufosinate-resistant corn, 16 DAT [2, 9]: 52.5%
- percent control of glyphosate-resistant and glufosinate-resistant corn, 9 DAT [2, 10]: 42.3%
- percent control of glyphosate-resistant and glufosinate-resistant corn, 16 DAT [2, 10]: 40%
- percent control of glyphosate-resistant and glufosinate-resistant corn, 9 DAT [2, 11]: 57.6%
- percent control of glyphosate-resistant and glufosinate-resistant corn, 16 DAT [2, 11]: 42.5%
- percent control of glyphosate-resistant and glufosinate-resistant corn, 9 DAT [2, 12]: 81.8%
- percent control of glyphosate-resistant and glufosinate-resistant corn, 16 DAT [2, 12]: 91.3%
- percent control of glyphosate-resistant and glufosinate-resistant corn, 9 DAT [2, 13]: 95%
- percent control of glyphosate-resistant and glufosinate-resistant corn, 16 DAT [2, 13]: 100%
